Structures can show the parent of a compound that is named as a salt.
Legend:
[1] = target: T1, α-1A adrenoceptor (rat vas deferens) (Rattus norvegicus, UniProt P43140); experiment: Functional antagonism of phenylephrine-induced contraction of rat vas deferens; format: cell-based; details: vs phenylephrine-induced contraction, Schild plot; read-out: pA2 Rat Vas Deferens [α-1A] (converted)
T1 construct: PE-induced contraction of rat vas deferens; from tissue; host or cells: isolated rat vas deferens
T1 sequence (P43140 1-466): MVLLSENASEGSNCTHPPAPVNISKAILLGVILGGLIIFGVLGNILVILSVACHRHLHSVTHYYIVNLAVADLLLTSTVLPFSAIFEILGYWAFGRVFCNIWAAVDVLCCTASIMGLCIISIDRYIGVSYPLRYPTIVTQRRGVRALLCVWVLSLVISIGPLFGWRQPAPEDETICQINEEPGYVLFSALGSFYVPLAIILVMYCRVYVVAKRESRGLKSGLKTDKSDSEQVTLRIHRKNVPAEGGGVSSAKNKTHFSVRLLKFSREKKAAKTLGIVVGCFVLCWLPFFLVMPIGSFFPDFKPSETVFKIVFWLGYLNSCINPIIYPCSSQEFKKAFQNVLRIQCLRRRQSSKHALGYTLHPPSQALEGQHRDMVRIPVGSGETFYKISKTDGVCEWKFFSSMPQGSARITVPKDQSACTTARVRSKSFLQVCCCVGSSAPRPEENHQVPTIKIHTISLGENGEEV
Text: (§1) Functional assays indicative of pharmacologically defined α-1 adrenoceptors were used to further characterize compounds. Inhibition of phenylephrine (PE)-induced contraction of canine prostate smooth muscle can be correlated with α-1A adrenoceptor activation. […] For each of these models, agonist dose response curves were repeated against increasing concentrations of test agent to derive a Schild plot [log ([…]) against log (molarity of test agent)] to determine the pA2.

[2] = target: T2, α-1B adrenoceptor (rat spleen) (Rattus norvegicus, UniProt P15823); experiment: Functional antagonism of phenylephrine-induced contraction of rat spleen; format: cell-based; details: vs phenylephrine-induced contraction, Schild plot; for Kb: read-out: pA2 Rat Spleen [α-1B] (converted)
T2 construct: PE-induced contraction of rat spleen; from tissue; host or cells: isolated rat spleen
T2 sequence (P15823 1-515): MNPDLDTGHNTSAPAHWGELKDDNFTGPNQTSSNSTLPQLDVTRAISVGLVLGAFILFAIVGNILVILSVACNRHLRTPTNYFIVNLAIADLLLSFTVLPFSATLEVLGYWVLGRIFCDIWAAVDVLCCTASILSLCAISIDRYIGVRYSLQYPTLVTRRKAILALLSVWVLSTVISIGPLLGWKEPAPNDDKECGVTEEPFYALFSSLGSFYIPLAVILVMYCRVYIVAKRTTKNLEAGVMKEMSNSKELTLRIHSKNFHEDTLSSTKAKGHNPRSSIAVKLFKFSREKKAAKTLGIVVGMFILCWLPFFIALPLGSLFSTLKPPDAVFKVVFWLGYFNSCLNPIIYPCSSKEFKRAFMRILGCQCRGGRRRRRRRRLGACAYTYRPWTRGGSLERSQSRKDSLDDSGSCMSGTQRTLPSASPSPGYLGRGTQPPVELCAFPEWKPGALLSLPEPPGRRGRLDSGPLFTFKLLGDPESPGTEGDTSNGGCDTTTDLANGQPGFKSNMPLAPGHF
Text: as §1

[3] = target: T3, α-1A adrenoceptor (dog prostate); experiment: Functional antagonism of phenylephrine-induced contraction of canine prostate strips; format: cell-based, dog (canine); details: vs phenylephrine-induced contraction, Schild plot; read-out: pA2 Dog Prostate [α-1A] (converted)
T3 construct: from tissue; host or cells: canine prostate strips
Text: Canine prostate strips were used in vitro as previously described (Hieble, J. P., Boyce, A. J. and Caine, M., Fed. Proc., 45: 2609-2614 (1986)), to determine antagonist potencies against phenylephrine-induced contractions.
as §1

T3 sequence (P35348 whole entry): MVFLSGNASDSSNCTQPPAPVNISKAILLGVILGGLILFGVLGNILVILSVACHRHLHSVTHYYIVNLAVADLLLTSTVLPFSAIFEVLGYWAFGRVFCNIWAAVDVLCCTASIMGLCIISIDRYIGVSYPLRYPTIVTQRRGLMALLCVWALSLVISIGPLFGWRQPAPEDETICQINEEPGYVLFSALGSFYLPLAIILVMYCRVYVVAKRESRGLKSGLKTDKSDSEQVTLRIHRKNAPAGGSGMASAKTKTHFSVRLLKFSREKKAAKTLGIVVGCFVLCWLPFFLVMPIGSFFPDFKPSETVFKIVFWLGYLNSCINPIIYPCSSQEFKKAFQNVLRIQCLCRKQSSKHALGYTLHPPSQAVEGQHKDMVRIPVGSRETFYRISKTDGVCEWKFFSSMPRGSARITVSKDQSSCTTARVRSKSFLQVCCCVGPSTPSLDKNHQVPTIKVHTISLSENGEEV

SMILES | Kb [3] [nM] | further results
COc1cccc2c1CC[C@H]1CN(CCn3c(=O)[nH]c4c(C)csc4c3=O)C[C@@H]21 (relative stereo) [Example 2, hydrochloride] | 0.692 | Kb [1]: 3.98 nM; Kb [2]: 6.92 nM
COc1cccc2c1CC[C@H]1CN(CCn3c(=O)[nH]c4sccc4c3=O)C[C@@H]21 (relative stereo) [Example 3, hydrochloride] | 2.09 | Kb [1]: 4.68 nM; Kb [2]: 12.3 nM
COc1cccc2c1CC[C@H]1CN(CCn3c(=O)[nH]c4ccsc4c3=O)C[C@@H]21 (relative stereo) [Example 5, hydrochloride] | 0.692 | Kb [1]: 6.46 nM; Kb [2]: 4.37 nM
COc1cccc2c1CC[C@H]1CN(CCn3c(=O)[nH]c4cscc4c3=O)C[C@@H]21 (relative stereo) [Example 8, 3-[2-(cis-6-Methoxy-2,3,3a,4,5,9b-hexahydro-[1H]-benz[e]isoindol-1-yl)ethyl]-thieno[3,4d]pyrimidine-2,4(1H,3H)-dione hydrochloride] | 0.457 | Kb [1]: 3.02 nM; Kb [2]: 5.5 nM
COc1cc2[nH]c(=O)n(CCN3C[C@@H]4CCc5c(OC)cccc5[C@@H]4C3)c(=O)c2cc1OC (relative stereo) [Example 10, hydrochloride] | – | Kb [2]: 129 nM
COc1cc2ncn(CCN3C[C@@H]4CCc5c(OC)cccc5[C@@H]4C3)c(=O)c2cc1OC (relative stereo) [Example 33, 3-[2-(cis-6-Methoxy-2,3,3a,4,5,9b-hexahydro-[1H]-benz[e]isoindol-1-yl)ethyl]-6,7-dimethoxy-quinazoline-4(3H)-one dihydrochloride] | – | Kb [1]: 1.12 nM; Kb [2]: 20.4 nM
COc1cc2[nH]c(=O)n(CCN3C[C@@H]4CCc5c(OC)cccc5[C@@H]4C3)c(=O)c2cc1OC [Example 39, hydrochloride] | – | pA2 Rat Spleen [α-1B] [2]: 7.52
COc1cc2ncn(CCN3C[C@@H]4CCc5c(OC)cccc5[C@@H]4C3)c(=O)c2cc1OC [Example 42, dihydrochloride] | – | Kb [1]: 5.75 nM; Kb [2]: 39.8 nM
COc1cccc2c1CC[C@H]1CN(CCn3c(=O)oc4cc5c(cc4c3=O)OCO5)C[C@@H]21 [Example 55, hydrochloride] | 4.9 | –
COc1cccc2c1CC[C@H]1CN(CCn3cnc4c(C)c(C)ccc4c3=O)C[C@@H]21 [Example 57, dihydrochloride] | 7.24 | –
COc1cccc2c1CC[C@H]1CN(CCn3cnc4c(OC)c(OC)ccc4c3=O)C[C@@H]21 [Example 58, dihydrochloride] | 1.26 | –
COC(=O)c1cc2c(=O)n(CCN3C[C@@H]4CCc5c(OC)cccc5[C@@H]4C3)c(=O)[nH]c2s1 [Example 59, hydrochloride] | 3.31 | –
COC(=O)c1cc2[nH]c(=O)n(CCN3C[C@@H]4CCc5c(OC)cccc5[C@@H]4C3)c(=O)c2s1 [Example 60, hydrochloride] | 0.708 | –
CCOC(=O)c1c[nH]c2[nH]c(=O)n(CCN3C[C@@H]4CCc5c(OC)cccc5[C@@H]4C3)c(=O)c12 [Example 61, hydrochloride] | 2.29 | –
COc1cccc2c1CC[C@H]1CN(CCn3c(=O)[nH]c4c(-c5ccccc5)c(OC)sc4c3=O)C[C@@H]21 [Example 62, hydrochloride] | 2.57 | –
CCc1c(OC)sc2c(=O)n(CCN3C[C@@H]4CCc5c(OC)cccc5[C@@H]4C3)c(=O)[nH]c12 [Example 63, hydrochloride] | 1.35 | –
COc1cccc2c1CC[C@H]1CN(CCn3c(=O)[nH]c4c(C)c(OC)sc4c3=O)C[C@@H]21 [Example 64, 3-[2-((3aR,9bR)-cis-6-Methoxy-2,3,3a,4,5,9b-hexahydro-[1H]-benz[e]isoindol-1-yl)ethyl]-6-methoxy-7-methylthieno [3,2-d]primidine-2,4(1H,3H)-dione hydrochloride] | 1.55 | –
COc1cccc2c1CC[C@H]1CN(CCn3c(=O)[nH]c4c(C(C)C)c(OC)sc4c3=O)C[C@@H]21 [Example 65, -[2-((3aR,9bR)-cis-6-Methoxy-2,3,3a,4,5,9b-hexahydro-[1H]-benz[e]isoindol-1-yl)ethyl]-6-methoxy-7-isopropylthieno [3,2-d]pyrimidine-2,4(1H,3H)-dione hydrochloride] | 2.34 | –

Further lines, with some results ahead:

Kb [3] [nM] | SMILES | further results
1.15 | COc1cccc2c1CC[C@H]1CN(CCn3c(=O)[nH]c4c(C)c(C)cnc4c3=O)C[C@@H]21 [Example 66, dihydrochloride] | –
4.68 | COc1cc2[nH]c(=O)n(CCCCN3C[C@@H]4CCc5cccc(OC)c5[C@@H]4C3)c(=O)c2cc1OC [Example 67, hydrochloride] | –
0.575 | COC(=O)c1ccc2c(=O)n(CCN3C[C@@H]4CCc5c(OC)cccc5[C@@H]4C3)c(=O)[nH]c2c1 [Example 69, hydrochloride] | –
1.12 | COc1cccc2c1CC[C@H]1CN(CCn3c(=O)[nH]c4cc(C(=O)O)ccc4c3=O)C[C@@H]21 [Example 70, hydrochloride] | –
3.55 | CCOC(=O)c1ccc2c(=O)n(CCN3C[C@@H]4CCc5c(OC)cccc5[C@@H]4C3)c(=O)[nH]c2c1 [Example 71, hydrochloride] | –
1.23 | COc1cccc2c1CC[C@H]1CN(CCn3c(=O)[nH]c4cc(C(=O)OC(C)C)ccc4c3=O)C[C@@H]21 [Example 73, hydrochloride] | –
1.7 | COc1cccc2c1CC[C@H]1CN(CCn3c(=O)[nH]c4cc([N+](=O)[O-])ccc4c3=O)C[C@@H]21 [Example 74, hydrochloride] | –
0.661 | COc1cccc2c1CC[C@H]1CN(CCn3c(=O)[nH]c4cc(NC(C)=O)ccc4c3=O)C[C@@H]21 [Example 75, 3-[2-((3aR,9bR)cis-6-Methoxy-2,3,3a,4,5,9b-hexahydro-[1H]-benz[e]isoindolyl-1-yl)ethyl]-7-acetamidoquinazoline-2,4(1H,3H)-dione hydrochloride] | –
1.86 | COc1cccc2c1CC[C@H]1CN(CCn3c(=O)[nH]c4cc(NS(C)(=O)=O)ccc4c3=O)C[C@@H]21 [Example 76, 3-[2-((3aR,9bR)cis-6-Methoxy-2,3,3a,4,5,9b-hexahydro-1WH-benz[e]isoindol-1-yl)lethyl]-7-methanesulfamlquinazoline-2,4(1H,3H)-dione hydrochloride] | –
0.977 | COc1cccc2c1CC[C@H]1CN(CCn3c(=O)[nH]c4ccccc4c3=O)C[C@@H]21 [Example 79, hydrochloride] | –
8.13 | COc1cccc2c1CC[C@H]1CN(CCn3c(=O)[nH]c4c(-c5ccccc5C)csc4c3=O)C[C@@H]21 [Example 84, hydrochloride] | –
2.82 | COc1ccccc1-c1csc2c(=O)n(CCN3C[C@@H]4CCc5c(OC)cccc5[C@@H]4C3)c(=O)[nH]c12 [Example 85, 3-[2-((3aR,9bR)cis-6-Methoxy-2,3,3a,4,5,9b-hexahydro-[1H]-benz[e]isoindol-1-yl)ethyl]-7-(2-methoxyphenyl)thieno[3.2-d]pyrimidine-2,4(1H,3H)-dione hydrochloride] | –
1.29 | COc1cccc2c1CC[C@H]1CN(CCn3c(=O)[nH]c4nccnc4c3=O)C[C@@H]21 [Example 87, 3-[2-((3aR,9bR)cis-6-Methoxy-2,3 3a,4,5,9b-hexahydro-[1H]-benz[e]isoindol-1-yl)ethyl]-2,4pteridinedione hydrochloride] | –
1.86 | COc1cccc2c1CC[C@H]1CN(CCn3c(=O)[nH]c4ncncc4c3=O)C[C@@H]21 [Example 88, 3-[2-((3aR,9bR)cis-6-Methoxy-2,3,3a,4,5,9b-hexahydro-[1H]-benz[e]isoindol-1-yl)ethyl]-p-rimidino[4,5-d]pyrimidine-2,4(1H,3H)-dione hydrochloride] | –

From patent US5792767A, “Bicyclic substituted hexahydrobenz [e] isoindole alpha-1 adrenergic antagonists” (priority 1995, dated 1998)
